Reference: patent US6011046A, “Quinone compound, its production and use as antioxidant” (Takeda Chemical Industries, Ltd., priority 1995, dated 2000)

Legend:
[1] = test system: lipoperoxide formed in the brain homogenate; test: Lipoperoxide formation inhibitory effect (thiobarbituric acid (TBA) method, brain homogenate); format: biochemical, Wistar male rats; settings: rat cerebral cortex homogenate supernatant, 37° C., 30 minutes, pH 7.4, malondialdehyde at 532 nm
Method: The lipoperoxide formed in the brain homogenate was quantified by the thiobarbituric acid (TBA) method of Stocks et al. (Cli. Sci. Mol. Med. 47, 215 (1974)). The cerebral cortex was removed from Wistar male rats (10 weeks old), and homogenized in ice-cooled phosphate physiological saline buffer (40 mM KH2 PO4 /K2 HPO4, 0.142M NaCl, pH 7.4). The homogenate was centrifuged at 1,000×g for 10 minutes, and the supernatant of the homogenate was used for the experiment. A solution of the test compound in ethanol (10 μl) was added to the supernatant (1 ml), and the mixture was incubated at 37° C. for 30 minutes. The reaction was stopped by adding 35% perchloric acid solution (200 μl). The reaction mixture was centrifuged at 13,000× g for 10 minutes, and 1% thiobarbituric acid solution (250 μl) was added to the supernatant (1.0 ml). The mixture was heated at 100° C. for 15 minutes, and then the amount of malondialdehyde formed by decomposition of the lipoperoxide was determined by colorimetry (532 nm).

Na+ channel site 1 = format: binding, SD male rats; settings: [3H]-saxitoxin 2 nM, rat forebrain homogenate, 37° C., 30 minutes
Na+ channel site 2 = test system: Na+ channel site 2; set-up: species or system SD male rats; settings: [3H]-batrachotoxin 2 nM, rat forebrain homogenate, 37° C., 45 minutes; read-out: IC50 (Na+ channel binding, site 2)

Row | Compound | IC50 [1] [µM] | effect on site 1 of Na channels (Na+ channel site 1) | IC50 (Na+ channel site 2) [µM]
1 | vitamin E [reference compound] | 203 ± 43 |  | 
2 | CC1=C(C)C(=O)C(C[C@](C)(O)CN2CCC(c3ccccc3)CC2)=C(C)C1=O [compound (A), (S)-2-[2-Hydroxy-2-methyl-3-(4-phenylpiperidin-1-yl)propyl]-3,5,6-trimethyl-1,4-benzoquinone] | 3.5 ± 0.56 | no effect | 0.9
